Key:
[1] = pH-potentiometric titration, stability constants (logβ) of ML complexes; format: physicochemical; conditions: [(η^5-Cp*)Rh]^2+; 0.20 M KCl, 25.0°C
Description: […]. […] Comparing the two metal ion containing systems, the complexation with [(η^6-p-cym)Ru]^2+, starts at a more acidic pH, but hydrolytic processes occur already in the physiological pH range due to the higher affinity of the metal ion to hydrolysis. For the [(η^5-Cp*)Rh]^2+, these processes are shifted towards higher pH; […].
For solution studies, doubly deionized and ultra-filtered water was obtained from a Milli-Q RG (Millipore) water purification system. pH-potentiometric measurements were carried out at a constant ionic strength of 0.20 M KCl and at 25.0°C. Carbonate-free KOH solutions of known concentrations (ca. 0.2 M) were used as titrant. […]. A Mettler Toledo DL50 titrator equipped with a DG114-SC combined glass electrode was used for the pH-potentiometric measurements. […] The titrations were performed in the pH range of 2.0–11.0 in equilibrium-controlled mode, during which the pH equilibrium was assumed to be reached if a change in the measured potential was less than 0.1 mV within 90 s. […] The protonation constants of the ligands and the overall stability constants of the complexes, βp,q,r = [MpHqLr]/[M]^p[H]^q[L]^r (where “M” stands for [(η^5-Cp*)Rh(H2O)3]^2+ and “L” represents the completely deprotonated form of the ligand), were calculated with the aid of the SUPERQUAD ([Gans et al., 1985]) and PSEQUAD ([Zékány and Nagypál, 1985]) computer programs, respectively. […]

[2] = pH-potentiometric titration, protonation constants (pKa) of the ligands; format: physicochemical; conditions: 0.20 M KCl, 25.0°C; N-heterocyclic ring of the ligand
Method: In order to obtain information on the acidbase character of the ligands and on the stoichiometry and stability of the complexes present in aqueous medium, potentiometric titrations were carried out in selected systems. Based on the results, both 3a and 3b, having good enough solubility in water, are capable of releasing one hydrogen ion from the fully protonated forms in the measurable pH range (see Figure 3, “pK”). The calculated pK a values appear in Table 4; these values belong to the N-heterocyclic ring of the ligands. […]. For comparison, the previously prepared β-anomeric pair of 3a, compound 3a-β ([Kacsir et al., 2021]) in Table 4, was also studied.
For solution studies, doubly deionized and ultra-filtered water was obtained from a Milli-Q RG (Millipore) water purification system. pH-potentiometric measurements were carried out at a constant ionic strength of 0.20 M KCl and at 25.0°C. Carbonate-free KOH solutions of known concentrations (ca. 0.2 M) were used as titrant. […]. A Mettler Toledo DL50 titrator equipped with a DG114-SC combined glass electrode was used for the pH-potentiometric measurements. […] The titrations were performed in the pH range of 2.0–11.0 in equilibrium-controlled mode, during which the pH equilibrium was assumed to be reached if a change in the measured potential was less than 0.1 mV within 90 s. […]

[3] = test system: A2780 cells; assay: MTT reduction assay on A2780 cells; format: cell-based; conditions: maximal inhibition; 4 h treatment; maximum concentration 100 µM
Method: For MTT assays, 4 × 10^3 A2780 cells were plated into 96-well plates, and for SRB assays, 1.5 × 10^3 A2780 cells were plated into 96-well plates. Cells were treated with the compounds in the concentrations indicated for either 4 h for an MTT assay or for 48 h for an SRB assay. Data are represented as average ± SD, from four biological replicates, with the exception of the MTT dataset of Ir-2b and the SRB datasets of 2b, Ru/Ir-2b, and Ir-3a, which were derived from three biological replicates. Individual assays were performed in duplicate. Values were normalized for vehicle-treated cells, and the absorbance for vehicle-treated cells equals 1. Data are represented as fold change compared to vehicle-treated controls. Normality was assessed using the D'Agostino-Pearson test. Statistical significance was assessed using a two-way ANOVA test followed by Tukey's post hoc test. For better visibility, normality, transformations, statistical tests, and p values are presented in an MS Excel sheet at https://figshare.com/s/3a0aa60b66f3f746f41e. Color code: black-free ligand (2a,b or 3a), khaki-ruthenium complex (Ru-2a,b or Ru-3a), green-iridium complex (Ir-2a,b or Ir-3a).  FIGURE 5 The ruthenium, osmium, and iridium complexes of ligands 4a, 4b, and 5a decrease MTT reduction. For MTT assays, 4 × 10^3 A2780 cells, 3 × 10^3 ID8 cells, or 6 × 10^3 human primary fibroblasts were plated into 96-well plates. Cells were treated with the compounds in the concentrations indicated for 4 h. Data are represented as average ± SD, from four biological replicates on A2780, and from three biological replicates on ID8 and human primary fibroblasts. For the datasets of 5a and Os-5a on human primary fibroblasts, the data represent four biological replicates. Individual assays were performed in duplicate. Values were normalized for vehicle-treated cells, and the absorbance for vehicle-treated cells equals 1. Normality was assessed using the D'Agostino-Pearson test. Statistical significance was assessed using a two-way ANOVA test followed by Tukey's post hoc test. For better visibility, normality, transformations, statistical tests, and p values are presented in an MS Excel sheet at https://figshare.com/s/3a0aa60b66f3f746f41e. Color code: black-free ligand (4a,b or 5a), khaki-ruthenium complex (Ru-4a,b), green-iridium complex (Ir-4a,b), blue-osmium complex (Os-4a,b or Os-5a), and red-rhodium complex (Rh-4a,b). An MTT reduction assay measures the activity of mitochondrial complex I and can be used to detect toxicity ([[…] et al., 2016]). The assay was performed in a manner similar to that described by [[…] et al. (2023b)]. Briefly, cells were plated into 96-well plates the day before the assay. Cells were treated with the compounds for 4 h; then, MTT was added to a 0.5 mg/mL final concentration, and cells were incubated at 37°C in a cell incubator for 40-60 min, as a function of the cell line being assessed. The culture medium was removed, the reduced MTT dye was dissolved in dimethylsulfoxide, and plates were measured in a plate photometer (Thermo Scientific Multiscan GO spectrophotometer, Waltham, MA, United States) at 540 nm. Certain wells were designated to contain vehicle-treated cells on each plate. In calculations, the readings for these wells were considered to 1, and all readings were expressed relative to these values. Statistical analysis was performed using version 8.0.1 of GraphPad Prism. Values were tested for normal distribution using the D'Agostino-Pearson or Shapiro-Wilk normality tests. When necessary, values were log-normalized or normalized using the Box-Cox or two-step normalization method ([Box and Cox, 1964]), as indicated in the MS Excel file listing the values at https://figshare.com/s/3a0aa60b66f3f746f41e. The following statistical test, post hoc test, and the level of significance are indicated in the MS Excel file listing the values at https://figshare.com/s/3a0aa60b66f3f746f41e. […]

Row | logβ [ML] [1] | pK a [2] | Structure (SMILES) | A2780 MTT max % [3] [%]
1 | 5.50 (4) | 3.59 (1) | OC[C@H]1O[C@H](n2cc(-c3ccccn3)nn2)[C@H](O)[C@@H](O)[C@@H]1O [Complex 3a, 1-(α-D-Glucopyranosyl)-4-(pyridin-2-yl)-1,2,3-triazole] | 0
2 | – | – | O=C(OC[C@H]1O[C@H](n2cc(-c3ccccn3)nn2)[C@H](OC(=O)c2ccccc2)[C@@H](OC(=O)c2ccccc2)[C@@H]1OC(=O)c1ccccc1)c1ccccc1 [Complex 4a, 1-(2’,3’,4’,6’-Tetra-O-benzoyl-α-D-glucopyranosyl)-4-(pyridin-2-yl)-1,2,3-triazole] | 0
3 | – | – | O=C(OC[C@H]1O[C@H](n2cc(-c3ccc4ccccc4n3)nn2)[C@H](OC(=O)c2ccccc2)[C@@H](OC(=O)c2ccccc2)[C@@H]1OC(=O)c1ccccc1)c1ccccc1 [Complex 4b, 1-(2’,3’,4’,6’-Tetra-O-benzoyl-α-D-glucopyranosyl)-4-(quinolin-2-yl)-1,2,3-triazole] | 0
4 | – | – | CCCCC(=O)OC[C@H]1O[C@H](n2cc(-c3ccccn3)nn2)[C@H](OC(=O)CCCC)[C@@H](OC(=O)CCCC)[C@@H]1OC(=O)CCCC [Complex 5a, 1-(2’,3’,4’,6’-Tetra-O-pentanoyl-α-D-glucopyranosyl)-4-(pyridin-2-yl)-1,2,3-triazole] | 0
